Values of other authors in patent US20260131008A1, “HYALURONIC ACID BASED DRUG DELIVERY SYSTEMS” (priority 2023, published 2026).

Details: in vivo

vitreal half-life: weeks
vitreal half-life, shortest estimates: 48 h
Substance: hyaluronic acid [Uncrosslinked HA]
